Calls of active or inactive are those of the source. No cut-off for these calls is given here.
Tests used:
[1] = Neurotoxicity in Kunming mouse assessed as swollen pyramidal cells in brain at 50 mg/kg, ip administered for 28 days by H and E staining based assay; format: toxicity, organism-based; conditions: in vivo, 672 h, time 28 day
Echinococcus granulosus [2] = experiment: Parasiticidal activity against Echinococcus granulosus microcyst infected in kunming mouse assessed as reduction in cyst weight at 25 mg/kg, ip administered for 14 days relative to control; format: functional; parameters: scale not given: the % may be the effect or the level left; conditions: time 14 day
Echinococcus granulosus [3] = experiment: Parasiticidal activity against Echinococcus granulosus microcyst infected in kunming mouse assessed as mean cyst weight at 12.5 mg/kg, ip administered for 28 days; format: functional; conditions: time 28 day
Echinococcus granulosus [4] = experiment: Induction of autophagy in Echinococcus granulosus protoscolices assessed as increase in Beclin1 expression level at 5 uM measured after 4 days by Western blot analysis; format: functional, organism-based; conditions: time 4.0 day
Echinococcus granulosus [5] = experiment: Parasiticidal activity against Echinococcus granulosus microcyst infected in kunming mouse assessed as reduction in cyst weight at 50 mg/kg, ip administered for 28 days relative to control; format: functional; parameters: scale not given: the % may be the effect or the level left; conditions: time 28 day
Echinococcus granulosus [6] = experiment: Induction of autophagy in Echinococcus granulosus protoscolices assessed as increase in ATG5 expression level at 5 uM measured after 4 days by Western blot analysis; format: functional, organism-based; conditions: time 4.0 day
Echinococcus granulosus [7] = experiment: Parasiticidal activity against Echinococcus granulosus microcyst infected in kunming mouse assessed as mean cyst weight at 12.5 mg/kg, ip administered for 14 days; format: functional; conditions: time 14 day
Echinococcus granulosus [8] = experiment: Parasiticidal activity against Echinococcus granulosus microcyst infected in kunming mouse assessed as reduction in cyst weight at 50 mg/kg, ip administered for 14 days relative to control; format: functional; parameters: scale not given: the % may be the effect or the level left; conditions: time 14 day
[9] = Neurotoxicity in Kunming mouse assessed as increased postsynaptic density in hippocampal at 50 mg/kg, ip administered for 28 days by TEM analysis; format: toxicity, organism-based; conditions: in vivo, 672 h, time 28 day
Echinococcus granulosus [10] = experiment: Parasiticidal activity against Echinococcus granulosus protoscolices […] by eosin exclusion test; format: functional; conditions: 1152 h, time 48 day
[11] = Neurotoxicity in Kunming mouse assessed as partial cristae in hippocampal at 50 mg/kg, ip administered for 28 days by TEM analysis; format: toxicity, organism-based; conditions: in vivo, 672 h, time 28 day
[12] = Neurotoxicity in Kunming mouse assessed as blurred synaptic space in hippocampal at 50 mg/kg, ip administered for 28 days by TEM analysis; format: toxicity, organism-based; conditions: in vivo, 672 h, time 28 day
Echinococcus granulosus [13] = experiment: Parasiticidal activity against intraperitoneal cystic Echinococcus granulosus infected in Kunming mouse assessed as decrease number of microvilli at 50 mg/kg, ip administered for 28 days by TEM analysis; format: functional, organism-based; conditions: time 28.0 day
Echinococcus granulosus [14] = experiment: Parasiticidal activity against Echinococcus granulosus microcyst infected in kunming mouse assessed as mean cyst weight at 50 mg/kg, ip administered for 28 days; format: functional; conditions: time 28 day
[15] = Neurotoxicity in Kunming mouse assessed as deformed pyramidal cells in brain at 50 mg/kg, ip administered for 28 days by H and E staining based assay; format: toxicity, organism-based; conditions: in vivo, 672 h, time 28 day
Echinococcus granulosus [16] = experiment: Parasiticidal activity against intraperitoneal cystic Echinococcus granulosus infected in Kunming mouse assessed as reduction in cell count with clear nucleolus at 50 mg/kg, ip administered for 28 days by TEM analysis; format: functional, organism-based; conditions: time 28.0 day
Echinococcus granulosus [17] = experiment: Parasiticidal activity against Echinococcus granulosus microcyst infected in kunming mouse assessed as reduction in cyst weight at 12.5 mg/kg, ip administered for 28 days relative to control; format: functional; parameters: scale not given: the % may be the effect or the level left; conditions: time 28 day
Echinococcus granulosus [18] = experiment: Parasiticidal activity against intraperitoneal cystic Echinococcus granulosus infected in Kunming mouse assessed as appearance of unclear cortex at 50 mg/kg, ip administered for 28 days by TEM analysis; format: functional, organism-based; conditions: time 28.0 day
Echinococcus granulosus [19] = experiment: Parasiticidal activity against Echinococcus granulosus microcyst infected in kunming mouse assessed as reduction in cyst weight at 12.5 mg/kg, ip administered for 14 days relative to control; format: functional; parameters: scale not given: the % may be the effect or the level left; conditions: time 14 day
Echinococcus granulosus [20] = experiment: Parasiticidal activity against Echinococcus granulosus microcyst infected in kunming mouse assessed as mean cyst weight at 25 mg/kg, ip administered for 28 days; format: functional; conditions: time 28 day
Echinococcus granulosus [21] = experiment: Parasiticidal activity against Echinococcus granulosus protoscolices assessed as survival rate at 1 uM incubated for 48 hrs by eosin exclusion test; format: functional
Echinococcus granulosus [22] = experiment: Parasiticidal activity against Echinococcus granulosus protoscolices assessed as appearance of partial shedding at 5 uM incubated for 4 days by H and E staining based assay; format: functional, organism-based; conditions: time 4.0 day
Echinococcus granulosus [23] = experiment: Parasiticidal activity against Echinococcus granulosus microcyst infected in kunming mouse assessed as reduction in cyst weight at 25 mg/kg, ip administered for 28 days relative to control; format: functional; parameters: scale not given: the % may be the effect or the level left; conditions: time 28 day
Echinococcus granulosus [24] = experiment: Parasiticidal activity against Echinococcus granulosus assessed as cyst destruction at 100 uM incubated for 4 days by scanning electron microscopy; format: functional, organism-based; conditions: time 4.0 day
Echinococcus granulosus [25] = experiment: Parasiticidal activity against Echinococcus granulosus protoscolices assessed as body shrank with irregular edge at 5 uM incubated for 4 days by H and E staining based assay; format: functional, organism-based; conditions: time 4.0 day
[26] = Neurotoxicity in Kunming mouse assessed as loosely arranged pyramidal cells in brain at 50 mg/kg, ip administered for 28 days by H and E staining based assay; format: toxicity, organism-based; conditions: in vivo, 672 h, time 28 day
[27] = Neurotoxicity in Kunming mouse assessed as incomplete mitochondrial membrane in hippocampal at 50 mg/kg, ip administered for 28 days by TEM analysis; format: toxicity, organism-based; conditions: in vivo, 672 h, time 28 day
Echinococcus granulosus [28] = experiment: Parasiticidal activity against Echinococcus granulosus microcyst infected in kunming mouse assessed as mean cyst weight at 50 mg/kg, ip administered for 14 days; format: functional; conditions: time 14 day
Echinococcus granulosus [29] = experiment: Induction of autophagy in Echinococcus granulosus protoscolices assessed as decrease in p62 expression level at 5 uM measured after 4 days by Western blot analysis; format: functional, organism-based; conditions: time 4.0 day
[30] = Neurotoxicity in Kunming mouse assessed as widened perinuclear space in hippocampal neurons at 50 mg/kg, ip administered for 28 days by TEM analysis; format: toxicity, organism-based; conditions: in vivo, 672 h, time 28 day
Echinococcus granulosus [31] = experiment: Parasiticidal activity against Echinococcus granulosus protoscolices assessed as outer skin and hooks fall off at 5 uM incubated for 2 days by scanning electron microscopy; format: functional, organism-based; conditions: time 2.0 day
Echinococcus granulosus [32] = experiment: Parasiticidal activity against Echinococcus granulosus microcyst infected in kunming mouse assessed as mean cyst weight at 25 mg/kg, ip administered for 14 days; format: functional; conditions: time 14 day
Echinococcus granulosus [33] = experiment: Parasiticidal activity against Echinococcus granulosus protoscolices assessed as appearance of relative completion of sucker at 5 uM incubated for 2 days by scanning electron microscopy; format: functional, organism-based; conditions: time 2.0 day

What does the source list for `COc1ccc2c(c1)[nH]c1c(C)nccc12` [HARMINE]?
Activity [1]: Toxic; Activity (Echinococcus granulosus [2]): 51.2%; Activity (Echinococcus granulosus [3]): 26.6 mg; Activity (Echinococcus granulosus [4]): Active; Activity (Echinococcus granulosus [5]): 56.93%; Activity (Echinococcus granulosus [6]): Active; Activity (Echinococcus granulosus [7]): 27.8 mg; Activity (Echinococcus granulosus [8]): 55.97%; Activity [9]: Toxic; LC50 (Echinococcus granulosus [10]): 135 µM; Activity [11]: Toxic; Activity [12]: Toxic; Activity (Echinococcus granulosus [13]): Active; Activity (Echinococcus granulosus [14]): 23.4 mg; Activity [15]: Toxic; Activity (Echinococcus granulosus [16]): Active; Activity (Echinococcus granulosus [17]): 67.17%; Activity (Echinococcus granulosus [18]): Active; Activity (Echinococcus granulosus [19]): 46.13%; Activity (Echinococcus granulosus [20]): 24.8 mg; Activity (Echinococcus granulosus [21]): 100%; Activity (Echinococcus granulosus [22]): Active; Activity (Echinococcus granulosus [23]): 54.4%; Activity (Echinococcus granulosus [24]): inactive; Activity (Echinococcus granulosus [25]): Active; Activity [26]: Toxic; Activity [27]: Toxic; Activity (Echinococcus granulosus [28]): 22.7 mg; Activity (Echinococcus granulosus [29]): Active; Activity [30]: Toxic; Activity (Echinococcus granulosus [31]): Active; Activity (Echinococcus granulosus [32]): 25.1 mg; Activity (Echinococcus granulosus [33]): Active
